{"source": "patent EP4737449A1", "about": "(Changchun Genescience Pharmaceutical Co., Ltd., priority 2023, dated 2025)", "data": [{"target": "T1, p53-Y220C mutant protein (Homo sapiens, UniProt P04637, Y220C)", "T1 construct": "The recombinant Y220C p53 DBD protein with his-tag", "assay": "In vitro DNA binding activity assay (TR-FRET)", "type": "biochemical", "conditions": "concentration required to increase the binding activity of protein to DNA by 50%", "description": "The activity of the compound to modulate the binding of the p53-Y220C mutant protein to DNA was detected using TR-FREt (Time-Resolved Fluorescence Resonance Energy Transfer). The recombinant Y220C p53 DBD protein with his-tag and the DNA sequence with biotin label were prepared firstly. Donor Eu(Europium)-SA(Streptavidin) can be bound to the DNA sequence through biotin, receptor for his antibody attached to alphaphycocyanin(APC, allophycocyanin), and his antibody can be bound to the Y220C p53 DBD protein with his-tag. When exposed to an excitation light with a wavelength of 340 nm, the donor Eu(Europium)-SA(Streptavidin) can emit fluorescence with a wavelength of 615 nm. If the donor and the receptor are close to each other, the donor will transfer part of the energy to the receptor and produce fluorescence with a wavelength of 665 nm. […] If there is no interaction, only 615 nm fluorescence is produced. • 1) Experimental steps • a. Adding 4 µL of dilute compound solution to each well of a 384-well microplate; • a. Adding 4 µL of 4X P53 working solution to each well of the 384-well microplate; • c. Sealing the 384-well microplate and equilibrating the system at room temperature for 60 min; • d. Adding 4 µl of biotin DNA solution to the 384-well microplate; • e. Adding 4 µl of 4X test solution (MAb Anti-6His-Eu and streptavidin-d2) to each well of the 384-well microplate; • f. Incubating overnight in the dark; and • g. Reading data of 665 nm and 615 nm wavelengths on the BMG multifunctional microplate reader. • 2) Data analysis • a. Calculating the ratio for each well (Ratio665 nm/615 nm-Ratiobackground); • b. Calculating the activity percentage (%activity) as follows: C = (Ave_Ac−Ave_Ba)/(Ave_Dc−Ave_Bd) [formula] R data = (A−Ave_Ba−CD)/(D−Ave_Bd)*(Ave_Dc−Ave_Bd) [formula] % Activity = R data/Ave_VC*100 [formula] • A: Fluorescence intensity of the sample at 665 nm; D: Fluorescence intensity of the sample at 615 nm; • Ba: Background fluorescence intensity of the culture plate at 665 nm; Bd: Background fluorescence intensity of the culture plate at 615 nm; • Dc: Background fluorescence intensity of HIS-E at 615 nm; Ac: Background fluorescence intensity of streptavidin-d2 at 665 nm); and • c. Calculating SC150 and plotting dose-effect curve\nCompared to the absence of the compound of the present invention, the activation percentage of binding of the p53 mutant protein to DNA in the presence of the compound of the present invention is expressed as SC150, which indicates the concentration of the compound required to increase the DNA binding activity of the p53 mutant protein by 50%. The SC150 is calculated using Prism™.", "units": {"SC150": "nM"}, "values": [{"compound": "CN1CC[C@@H](Nc2cccc3c(CC(F)(F)F)c(C#CCNC(=O)c4cnn(CC5CC5)c4)nn23)[C@@H](F)C1", "note": "[Compound 268, 1-(cyclopropylmethyl)-N-[3-(7-{[(3S,4R)-3-fluoro-1-methylpiperidin-4-yl]amino}-3-(2,2,2-trifluoroethyl)pyrazolo[1,5-a]pyridin-2-yl)prop-2-yn-1-yl]-1H-pyrazole-4-carboxamide]", "SC150": 10}, {"compound": "CC(C1CC1)n1cc(C(=O)NCC#Cc2nn3c(N[C@@H]4CCN(C)C[C@@H]4F)cccc3c2CC(F)(F)F)cn1", "note": "(stereo partly drawn) [Compound 269, 1-(1-cyclopropylethyl)-N-[3-(7-{[(3S,4R)-3-fluoro-1-methylpiperidin-4-yl]amino}-3-(2,2,2-trifluoroethyl)pyrazolo[1,5-a]pyridin-2-yl)prop-2-yn-1-yl]-1H-pyrazole-4-carboxamide]", "SC150": 8}, {"compound": "Cc1cc(C(=O)NCC#Cc2nn3c(N[C@@H]4CCN(C)C[C@@H]4F)cccc3c2CC(F)(F)F)cn1C", "note": "[Compound 273, N-[3-(7-{[(3S,4R)-3-fluoro-1-methylpiperidin-4-yl]amino}-3-(2,2,2-trifluoroethyl)pyrazolo[1,5-a]pyridin-2-yl)prop-2-yn-1-yl]-1,5-dimethyl-1H-pyrrole-3-carboxamide]", "SC150": 11}, {"compound": "Cc1c(C(=O)NCC#Cc2nn3c(N[C@@H]4CCN(C)C[C@@H]4F)cccc3c2CC(F)(F)F)cnn1C1CC1", "note": "[Compound 282, 1-cyclopropyl-N-[3-(7-{[(3S,4R)-3-fluoro-1-methylpiperidin-4-yl]amino}-3-(2,2,2-trifluoroethyl)pyrazolo[1,5-a]pyridin-2-yl)prop-2-yn-1-yl]-5-methyl-1H-pyrazole-4-carboxamide]", "SC150": 19}, {"compound": "CN1CC[C@@H](Nc2cccc3c(CC(F)(F)F)c(C#CCNC(=O)c4cnn(CC5CCCC5)c4N)nn23)[C@@H](F)C1", "note": "[Compound 285]", "SC150": 28}, {"compound": "CC(C)Cn1ncc(C(=O)NCC#Cc2nn3c(N[C@@H]4CCN(C)C[C@@H]4F)cccc3c2CC(F)(F)F)c1N", "note": "[Compound 286, 5-amino-N-[3-(7-{[(3S,4R)-3-fluoro-1-methylpiperidin-4-yl]amino}-3-(2,2,2-trifluoroethyl)pyrazolo[1,5-a]pyridin-2-yl)prop-2-yn-1-yl]-1-isobutyl-1H-pyrazole-4-carboxamide]", "SC150": 8}, {"compound": "CN1CC[C@@H](Nc2cccc3c(CC(F)(F)F)c(C#CCNC(=O)c4cnn(CC(C)(C)C)c4N)nn23)[C@@H](F)C1", "note": "[Compound 287]", "SC150": 23}, {"compound": "Cc1nn(C(C)(C)C)c(N)c1C(=O)NCC#Cc1nn2c(N[C@@H]3CCN(C)C[C@@H]3F)cccc2c1CC(F)(F)F", "note": "[Compound 288, 5-amino-1-tert-butyl-N-[3-(7-{[(3S,4R)-3-fluoro-1-methylpiperidin-4-yl]amino}-3-(2,2,2-trifluoroethyl)pyrazolo[1,5-a]pyridin-2-yl)prop-2-yn-1-yl]-3-methyl-1H-pyrazole-4-carboxamide]", "SC150": 69}, {"compound": "Cc1cc(N)c(C(=O)NCC#Cc2nn3c(N[C@@H]4CCN(C)C[C@@H]4F)cccc3c2CC(F)(F)F)cn1", "note": "[Compound 294, 4-amino-N-[3-(7-{[(3S,4R)-3-fluoro-1-methylpiperidin-4-yl]amino}-3-(2,2,2-trifluoroethyl)pyrazolo[1,5-a]pyridin-2-yl)prop-2-yn-1-yl]-6-methylnicotinamide]", "SC150": 39}, {"compound": "Cc1ccc(C(=O)NCC#Cc2nn3c(N[C@@H]4CCN(C)C[C@@H]4F)cccc3c2CC(F)(F)F)c(N)n1", "note": "[Compound 295, 2-amino-N-[3-(7-{[(3S,4R)-3-fluoro-1-methylpiperidin-4-yl]amino}-3-(2,2,2-trifluoroethyl)pyrazolo[1,5-a]pyridin-2-yl)prop-2-yn-1-yl]-6-methylnicotinamide]", "SC150": 45}, {"compound": "CN1CC[C@@H](Nc2cccc3c(CC(F)(F)F)c(C#CCNC(=O)c4ccn5c4CCC5)nn23)[C@@H](F)C1", "note": "[Compound 302, N-[3-(7-{[(3S,4R)-3-fluoro-1-methylpiperidin-4-yl]amino}-3-(2,2,2-trifluoroethyl)pyrazolo[1,5-a]pyridin-2-yl)prop-2-yn-1-yl]-2,3-dihydro-1H-pyrrolizine-7-carboxamide]", "SC150": 25}, {"compound": "CN1CC[C@@H](Nc2cccc3c(CC(F)(F)F)c(C#CCNC(=O)c4cnn(C5(O)CC5)c4)nn23)[C@@H](F)C1", "note": "[Compound 303, N-[3-(7-{[(3S,4R)-3-fluoro-1-methylpiperidin-4-yl]amino}-3-(2,2,2-trifluoroethyl)pyrazolo[1,5-a]pyridin-2-yl)prop-2-yn-1-yl]-1-(1-hydroxycyclopropyl)-1H-pyrazole-4-carboxamide]", "SC150": 14}, {"compound": "CN1CC[C@@H](Nc2cccc3c(CC(F)(F)F)c(C#CCNC(=O)c4cnn(C5(F)CC5)c4)nn23)[C@@H](F)C1", "note": "[Compound 304]", "SC150": 13}, {"compound": "CNc1c(C(=O)NCC#Cc2nn3c(N[C@@H]4CCN(C)C[C@@H]4F)cccc3c2CC(F)(F)F)cnn1C(C)(C)C", "note": "[Compound 307, 1-(tert-butyl)-N-[3-(7-{[(3S,4R)-3-fluoro-1-methylpiperidin-4-yl]amino}-3-(2,2,2-trifluoroethyl)pyrazolo [1,5-a]pyridin-2-yl)prop-2-yn-1-yl]-5-(methylamino)-1H-pyrazole-4-carboxamide]", "SC150": 32}, {"compound": "CN1CC[C@@H](Nc2cccc3c(CC(F)(F)F)c(C#CCNC(=O)c4cn(C)c(C(F)F)n4)nn23)[C@@H](F)C1", "note": "[Compound 309, 2-difluoromethyl-N-[3-(7-{[(3S,4R)-3-fluoro-1-methylpiperidin-4-yl]amino}-3-(2,2,2-trifluoroethyl)pyrazolo[1,5-a]pyridin-2-yl)prop-2-yn-1-yl]-1-methyl-1H-imidazole-4-carboxamide]", "SC150": 74}, {"compound": "CN1CC[C@@H](Nc2cccc3c(CC(F)(F)F)c(C#CCNC(=O)c4cnn(CCO)c4)nn23)[C@@H](F)C1", "note": "[Compound 310, N-[3-(7-{[(3S,4R)-3-fluoro-1-methylpiperidin-4-yl]amino}-3-(2,2,2-trifluoroethyl)pyrazolo[1,5-a]pyridin-2-yl)prop-2-yn-1-yl]-1-(2-hydroxyethyl)-1H-pyrazole-4-carboxamide]", "SC150": 11}, {"compound": "CC(C)c1cc(C(=O)NCC#Cc2nn3c(N[C@@H]4CCN(C)C[C@@H]4F)cccc3c2CC(F)(F)F)no1", "note": "[Compound 321, N-[3-(7-{[(3S,4R)-3-fluoro-1-methylpiperidin-4-yl]amino}-3-(2,2,2-trifluoroethyl)pyrazolo[1,5-a]pyridin-2-yl)prop-2-yn-1-yl]-5-isopropylisoxazole-3-carboxamide]", "SC150": 99}, {"compound": "CC(C)c1cc(C(=O)NCC#Cc2nn3c(N[C@@H]4CCN(C)C[C@@H]4F)cccc3c2CC(F)(F)F)on1", "note": "[Compound 323, N-[3-(7-{[(3S,4R)-3-fluoro-1-methylpiperidin-4-yl]amino}-3-(2,2,2-trifluoroethyl)pyrazolo[1,5-a]pyridin-2-yl)prop-2-yn-1-yl]-3-isopropylisoxazole-5-carboxamide]", "SC150": 57}, {"compound": "CN1CC[C@@H](Nc2cccc3c(CC(F)(F)F)c(C#CCNC(=O)c4ncn(C)n4)nn23)[C@@H](F)C1", "note": "[Compound 324, N-[3-(7-{[(3S,4R)-3-fluoro-1-methylpiperidin-4-yl]amino}-3-(2,2,2-trifluoroethyl)pyrazolo[1,5-a]pyridin-2-yl)prop-2-yn-1-yl]-1-methyl-1H-1,2,4-triazole-3-carboxamide]", "SC150": 29}]}]}
